Results on ten compounds are retold here after patent US20250197372A1 (priority 2020, published 2025).

Common to all, as to type: biochemical
The target in assay [1] is rat sucrase (partially purified alpha-glucosidase from intestinal rat powder) (Rattus norvegicus, UniProt P23739). Description: Intestinal alpha-glucosidase assay, sucrose substrate (Glucose GO Kit). A digest of the protocol:
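First step: 60 min, 37 °C, compound with partially purified rat intestinal alpha-glucosidase. Next, maltose or sucrose for 30 min at 37 °C, ended at 90 °C for 5 min. Glucose quantified enzymatically; concentration–inhibition data fitted 4-PL for IC50.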

In assay [2] the target is T1, recombinant alpha-glucosidase II (murine full-length glucosidase II, alpha and beta subunits, Glu 2) (Mus musculus, UniProt Q8BHN3).
T1 construct: made in house; host or cells: HEK-293T cells transduced with BacMam viruses (75% alpha, 25% beta); protein harvested from culture supernatant
Description: Alpha-glucosidase II assay (4-methylumbelliferyl-alpha-D-pyranoside substrate, fluorescence). The settings on record: Glucosidase 2; read-out: Glu2 IC50.

In assay [3] the target is T2, recombinant human GBA (beta-glucocerebrosidase) (Homo sapiens, UniProt P04062).
T2 sequence (P04062 40-536): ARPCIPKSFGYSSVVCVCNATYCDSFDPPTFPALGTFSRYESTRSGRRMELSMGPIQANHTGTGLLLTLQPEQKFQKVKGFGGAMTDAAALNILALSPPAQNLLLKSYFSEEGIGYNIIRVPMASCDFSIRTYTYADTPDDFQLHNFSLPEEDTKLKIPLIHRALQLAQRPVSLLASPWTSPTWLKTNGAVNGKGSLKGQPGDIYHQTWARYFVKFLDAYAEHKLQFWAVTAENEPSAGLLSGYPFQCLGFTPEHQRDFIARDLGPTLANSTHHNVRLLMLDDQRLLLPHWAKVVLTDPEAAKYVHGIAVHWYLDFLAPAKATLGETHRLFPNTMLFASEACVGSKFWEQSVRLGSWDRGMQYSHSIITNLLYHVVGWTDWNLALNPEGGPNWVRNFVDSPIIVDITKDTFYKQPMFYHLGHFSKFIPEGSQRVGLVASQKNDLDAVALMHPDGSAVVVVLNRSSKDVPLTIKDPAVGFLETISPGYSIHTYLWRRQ
The assay can be described thus: Beta-glucocerebrosidase (GBA, glucosylceramidase) assay (4-methylumbelliferyl-beta-D-pyranoside substrate, fluorescence). A digest of the protocol: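 IC50 by four-parameter fit of percent inhibition, with product fluorescence (365/440 nm) read after a glycine/NaOH pH 10 stop. Compound and commercial recombinant human enzyme were incubated 60 min at 37 °C before a further 60 min at 37 °C with 4-methylumbelliferyl-beta-D-pyranoside substrate.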

The structures appear in SMILES notation. Where only a bound is given, the exact number is not on record here.

T1 sequence (O08795 15-521): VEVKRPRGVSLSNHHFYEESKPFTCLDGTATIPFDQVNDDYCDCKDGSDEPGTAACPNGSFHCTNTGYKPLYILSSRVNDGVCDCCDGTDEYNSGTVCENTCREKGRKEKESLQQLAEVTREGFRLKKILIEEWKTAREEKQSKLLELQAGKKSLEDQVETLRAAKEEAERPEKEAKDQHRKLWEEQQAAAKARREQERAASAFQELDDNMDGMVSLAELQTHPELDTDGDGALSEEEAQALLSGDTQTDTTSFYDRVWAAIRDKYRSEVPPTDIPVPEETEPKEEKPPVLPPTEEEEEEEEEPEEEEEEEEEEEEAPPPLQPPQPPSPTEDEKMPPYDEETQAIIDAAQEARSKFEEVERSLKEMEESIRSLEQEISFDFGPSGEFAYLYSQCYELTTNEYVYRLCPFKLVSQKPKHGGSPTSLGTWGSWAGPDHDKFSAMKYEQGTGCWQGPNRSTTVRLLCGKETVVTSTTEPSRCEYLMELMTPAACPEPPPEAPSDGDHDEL
T1 sequence (Q8BHN3 33-944): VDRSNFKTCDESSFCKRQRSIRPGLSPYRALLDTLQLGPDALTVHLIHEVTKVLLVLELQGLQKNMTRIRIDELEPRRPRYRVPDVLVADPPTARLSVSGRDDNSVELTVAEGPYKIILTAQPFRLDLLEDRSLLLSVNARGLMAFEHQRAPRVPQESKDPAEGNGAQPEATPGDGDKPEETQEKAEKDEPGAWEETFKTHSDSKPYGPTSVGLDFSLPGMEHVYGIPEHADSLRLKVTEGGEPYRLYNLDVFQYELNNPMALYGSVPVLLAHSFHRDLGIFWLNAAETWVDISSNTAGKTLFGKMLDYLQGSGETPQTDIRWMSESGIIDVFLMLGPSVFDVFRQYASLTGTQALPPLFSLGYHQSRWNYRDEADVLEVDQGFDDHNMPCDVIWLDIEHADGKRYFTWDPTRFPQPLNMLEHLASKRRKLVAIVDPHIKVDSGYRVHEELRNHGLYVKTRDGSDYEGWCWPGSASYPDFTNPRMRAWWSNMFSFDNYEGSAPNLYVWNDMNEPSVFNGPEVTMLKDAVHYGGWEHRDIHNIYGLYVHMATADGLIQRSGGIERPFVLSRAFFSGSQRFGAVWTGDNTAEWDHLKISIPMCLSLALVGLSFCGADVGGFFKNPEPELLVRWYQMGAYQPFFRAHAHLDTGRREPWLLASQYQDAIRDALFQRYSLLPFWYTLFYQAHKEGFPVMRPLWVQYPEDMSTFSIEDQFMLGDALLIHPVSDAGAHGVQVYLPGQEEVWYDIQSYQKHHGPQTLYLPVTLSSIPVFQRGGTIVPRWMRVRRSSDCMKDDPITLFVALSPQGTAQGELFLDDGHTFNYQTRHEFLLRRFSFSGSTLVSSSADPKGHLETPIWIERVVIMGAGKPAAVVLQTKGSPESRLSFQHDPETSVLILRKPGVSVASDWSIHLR
Chain of rat sucrase (partially purified alpha-glucosidase from intestinal rat powder) (P23739 whole entry): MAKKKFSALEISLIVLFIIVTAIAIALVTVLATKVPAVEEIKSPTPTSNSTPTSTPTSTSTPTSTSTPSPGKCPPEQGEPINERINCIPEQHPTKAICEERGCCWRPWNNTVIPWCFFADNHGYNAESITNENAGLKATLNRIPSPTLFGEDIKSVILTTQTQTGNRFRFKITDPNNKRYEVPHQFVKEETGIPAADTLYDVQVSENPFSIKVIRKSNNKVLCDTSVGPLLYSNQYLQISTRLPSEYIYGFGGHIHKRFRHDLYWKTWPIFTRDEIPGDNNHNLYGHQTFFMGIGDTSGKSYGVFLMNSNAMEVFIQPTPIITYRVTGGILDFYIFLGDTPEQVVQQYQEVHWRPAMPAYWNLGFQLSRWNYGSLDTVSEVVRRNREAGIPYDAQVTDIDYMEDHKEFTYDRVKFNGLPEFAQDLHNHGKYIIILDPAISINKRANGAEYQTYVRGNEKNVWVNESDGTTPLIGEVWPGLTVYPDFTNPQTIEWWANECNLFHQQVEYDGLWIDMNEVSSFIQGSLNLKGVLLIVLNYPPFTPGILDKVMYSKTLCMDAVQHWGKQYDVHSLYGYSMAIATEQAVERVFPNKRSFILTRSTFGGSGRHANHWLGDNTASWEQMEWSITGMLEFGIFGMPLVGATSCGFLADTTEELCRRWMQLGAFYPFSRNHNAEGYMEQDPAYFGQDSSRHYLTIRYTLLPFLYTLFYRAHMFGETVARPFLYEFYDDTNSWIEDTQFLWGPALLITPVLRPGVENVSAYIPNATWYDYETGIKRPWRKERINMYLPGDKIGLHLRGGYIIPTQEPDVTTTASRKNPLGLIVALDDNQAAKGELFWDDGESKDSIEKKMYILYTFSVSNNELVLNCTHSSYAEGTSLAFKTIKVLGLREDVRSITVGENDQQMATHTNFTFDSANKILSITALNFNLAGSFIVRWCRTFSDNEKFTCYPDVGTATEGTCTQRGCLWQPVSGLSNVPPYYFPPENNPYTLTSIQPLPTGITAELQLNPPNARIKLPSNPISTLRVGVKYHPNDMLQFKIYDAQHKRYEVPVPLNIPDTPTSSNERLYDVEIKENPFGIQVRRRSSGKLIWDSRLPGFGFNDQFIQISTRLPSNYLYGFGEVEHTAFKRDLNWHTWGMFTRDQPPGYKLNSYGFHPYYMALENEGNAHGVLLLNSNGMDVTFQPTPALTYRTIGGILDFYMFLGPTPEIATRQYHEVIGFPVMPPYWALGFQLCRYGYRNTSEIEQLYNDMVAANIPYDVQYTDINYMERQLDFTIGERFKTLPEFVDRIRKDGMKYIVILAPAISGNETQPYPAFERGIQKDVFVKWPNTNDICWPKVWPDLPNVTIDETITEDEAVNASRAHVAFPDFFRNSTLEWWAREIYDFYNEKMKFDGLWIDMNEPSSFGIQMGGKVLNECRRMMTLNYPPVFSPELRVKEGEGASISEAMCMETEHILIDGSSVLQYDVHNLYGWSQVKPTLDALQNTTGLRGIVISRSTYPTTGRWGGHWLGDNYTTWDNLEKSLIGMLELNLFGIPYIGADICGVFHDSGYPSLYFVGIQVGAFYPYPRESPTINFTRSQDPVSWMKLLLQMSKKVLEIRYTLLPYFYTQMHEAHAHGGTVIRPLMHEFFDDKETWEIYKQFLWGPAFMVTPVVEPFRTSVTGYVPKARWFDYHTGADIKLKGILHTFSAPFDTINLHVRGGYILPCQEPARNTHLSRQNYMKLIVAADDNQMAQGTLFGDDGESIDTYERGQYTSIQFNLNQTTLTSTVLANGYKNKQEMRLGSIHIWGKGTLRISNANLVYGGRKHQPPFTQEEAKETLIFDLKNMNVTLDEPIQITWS

For the compound `O=[N+]([O-])c1cc(N2CC3CC2CO3)ccc1NCc1ccc(CN2C[C@@H](O)[C@H](O)[C@@H](O)[C@@H]2CO)cc1` (stereo in doubt) [Compound 1015, (2S,3S,4S,5R)-2-(hydroxymethyl)-1-[(4-{[(2-nitro-4-{2-oxa-5-azabicyclo[2.2.1]heptan-5-yl}phenyl)amino]methyl}phenyl)methyl]piperidine-3,4,5-triol], the IC50 (usually the concentration that gives 50% inhibition) was 0.078 µM in assay [1], 0.002 µM in assay [2] and above 100 µM in assay [3].

Regarding `CN(Cc1cccc(CN2C[C@H](O)[C@@H](O)[C@H](O)[C@H]2CO)c1)c1ccc(CN2CCCO2)cc1[N+](=O)[O-]` [Compound 1020], the IC50 was found to be 0.129 µM in assay [1] and 76.3 µM in assay [3].

For the compound `Cc1cc(Br)cc(NCc2cccc(CN3C[C@H](O)[C@@H](O)[C@H](O)[C@H]3CO)c2)c1` [Compound 1021, (2R,3R,4R,5S)-1-[(3-{[(3-bromo-5-methylphenyl)amino]methyl}phenyl)methyl]-2-(hydroxymethyl)piperidine-3,4,5-triol], the IC50 in assay [1] turned out to be 0.001 µM; in assay [2] it was 35 µM; in assay [3], 25.8 µM.

For `N#Cc1cc(Br)cc(NCc2cccc(CN3C[C@H](O)[C@@H](O)[C@H](O)[C@H]3CO)c2)c1` [Compound 1023, 3-bromo-5-{[(3-{[(2R,3R,4R,5S)-3,4,5-trihydroxy-2-(hydroxymethyl)piperidin-1-yl]methyl}phenyl)methyl]amino}benzonitrile], the IC50 in assay [1] worked out at 0.066 µM; in assay [2], 42.6 µM; in assay [3], 91.1 µM.

As for `Cc1cc(Br)cc(NCc2ccc(CN3C[C@H](O)[C@@H](O)[C@H](O)[C@H]3CO)cc2)c1` [Compound 1024, (2R,3R,4R,5S)-1-[(4-{[(3-bromo-5-methylphenyl)amino]methyl}phenyl)methyl]-2-(hydroxymethyl)piperidine-3,4,5-triol], the IC50 in assay [1] was found to be 0.014 µM; in assay [3], 21.1 µM.

Regarding `CS(=O)(=O)c1cc(Br)cc(NCc2ccc(CN3C[C@H](O)[C@@H](O)[C@H](O)[C@H]3CO)cc2)c1` [Compound 1025, (2R,3R,4R,5S)-1-[(4-{[(3-bromo-5-methanesulfonylphenyl)amino]methyl}phenyl)methyl]-2-(hydroxymethyl)piperidine-3,4,5-triol], the IC50 was determined as 0.002 µM in assay [1], 0.229 µM in assay [2] and 38.9 µM in assay [3].

On to `N#Cc1cc(Br)cc(NCc2ccc(CN3C[C@H](O)[C@@H](O)[C@H](O)[C@H]3CO)cc2)c1` [Compound 1026, 3-bromo-5-{[(4-{[(2R,3R,4R,5S)-3,4,5-trihydroxy-2-(hydroxymethyl)piperidin-1-yl]methyl}phenyl)methyl]amino}benzonitrile], for which the IC50 is below 0.001 µM in assay [1], below 0.001 µM in assay [2] and 37.9 µM in assay [3].

With `OC[C@@H]1[C@@H](O)[C@H](O)[C@@H](O)CN1Cc1cccc(CNc2ccc(Br)cc2)c1` [Compound 1027, (2R,3R,4R,5S)-1-[(3-{[(4-bromophenyl)amino]methyl}phenyl)methyl]-2-(hydroxymethyl)piperidine-3,4,5-triol], the values for the IC50 in assay [1], in assay [2] and in assay [3] were 0.023 µM, 23.6 µM and 75.7 µM, respectively.

As for `OC[C@@H]1[C@@H](O)[C@H](O)[C@@H](O)CN1Cc1ccc(CNc2ccc(Br)cc2)cc1` [Compound 1028, (2R,3R,4R,5S)-1-[(4-{[(4-bromophenyl)amino]methyl}phenyl)methyl]-2-(hydroxymethyl)piperidine-3,4,5-triol], the figures for the IC50 in assay [1], in assay [2] and in assay [3] were 0.011 µM, 0.827 µM and 12.9 µM, respectively.

In the case of `O=[N+]([O-])c1cc(Br)ccc1NCc1cccc(CN2C[C@H](O)[C@@H](O)[C@H](O)[C@H]2CO)c1` [Compound 1029, (2R,3R,4R,5S)-1-[(3-{[(4-bromo-2-nitrophenyl)-amino]methyl}phenyl)methyl]-2-(hydroxymethyl)piperidine-3,4,5-triol], the values for the IC50 in assay [1], in assay [2] and in assay [3] were below 0.001 µM, 20.4 µM and 52.3 µM, respectively.
